# “Also recorded” adds a separate entry of the source.
# Tests used:
# [1] = test system: aged-impaired (AI) rats; assay: Radial Arm Maze (RAM) behavioral task, spatial memory retention; format: in vivo, rat; details: 3 mg/kg i.p., two-hour delay RAM
# Description: The effects of methyl 3,5-diphenylpyridazine-4-carboxylate on the in vivo spatial memory retention of aged-impaired (AI) rats were assessed in a Radial Arm Maze (RAM) behavioral task using vehicle control and four different dosage levels of methyl 3,5-diphenylpyridazine-4-carboxylate (0.1 mg/kg, 0.3 mg/kg, 1 mg/kg and 3 mg/kg, ip). RAM behavioral tasks were performed on eight AI rats. All five treatment conditions (vehicle and four dosage levels) were tested on all eight rats.
# The RAM apparatus used consisted of eight equidistantly-spaced arms. An elevated maze arm (7 cm width×75 cm length) projected from each facet of an octagonal center platform (30 cm diameter, 51.5 cm height). Clear side walls on the arms were 10 cm high and were angled at 65° to form a trough. A food well (4 cm diameter, 2 cm deep) was located at the distal end of each arm. Froot Loops™ (Kellogg Company) were used as rewards. Blocks constructed of Plexiglas™ (30 cm height×12 cm width) could be positioned to prevent entry to any arm. Numerous extra maze cues surrounding the apparatus were also provided.
# The AI rats were initially subjected to a pre-training test (Chappell et al. Neuropharmacology 37: 481-487, 1998). The pre-training test consisted of a habituation phase (4 days), a training phase on the standard win-shift task (18 days) and another training phase (14 days) in which a brief delay was imposed between presentation of a subset of arms designated by the experimenter (e.g., 5 arms available and 3 arms blocked) and completion of the eight-arm win-shift task (i.e., with all eight arms available).
# In the habituation phase, rats were familiarized to the maze for an 8-minute session on four consecutive days. In each of these sessions, food rewards were scattered on the RAM, initially on the center platform and arms and then progressively confined to the arms. After this habituation phase, a standard training protocol was used, in which a food pellet was located at the end of each arm. Rats received one trial each day for 18 days. Each daily trial terminated when all eight food pellets had been obtained or when either 16 choices were made or 15 minutes had elapsed. After completion of this training phase, a second training phase was carried out in which the memory demand was increased by imposing a brief delay during the trial. At the beginning of each trial, three arms of the eight-arm maze were blocked. Rats were allowed to obtain food on the five arms to which access was permitted during this initial “information phase” of the trial. Rats were then removed from the maze for 60 seconds, during which time the barriers on the maze were removed, thus allowing access to all eight arms. […]
# [2] = target: GABAA α5 receptor (Rattus norvegicus, UniProt P18508+P19969); assay: GABAA α5 receptor occupancy in vivo with Ro 15-4513 tracer (hippocampus vs cerebellum)
# Chain of GABAA α5 receptor (P19969 32-464 limits assumed): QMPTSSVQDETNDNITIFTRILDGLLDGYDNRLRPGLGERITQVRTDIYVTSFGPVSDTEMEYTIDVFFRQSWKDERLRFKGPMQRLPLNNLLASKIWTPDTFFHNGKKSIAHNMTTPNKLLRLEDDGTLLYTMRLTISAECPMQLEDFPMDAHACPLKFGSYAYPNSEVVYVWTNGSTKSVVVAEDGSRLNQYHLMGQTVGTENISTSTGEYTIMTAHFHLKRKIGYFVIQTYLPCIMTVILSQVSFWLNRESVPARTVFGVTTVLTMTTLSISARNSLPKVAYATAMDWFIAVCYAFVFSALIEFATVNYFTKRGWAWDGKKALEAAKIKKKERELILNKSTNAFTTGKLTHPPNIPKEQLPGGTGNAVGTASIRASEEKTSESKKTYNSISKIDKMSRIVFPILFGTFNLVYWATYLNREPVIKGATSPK
# Chain of GABAA α5 receptor (P18508 39-466): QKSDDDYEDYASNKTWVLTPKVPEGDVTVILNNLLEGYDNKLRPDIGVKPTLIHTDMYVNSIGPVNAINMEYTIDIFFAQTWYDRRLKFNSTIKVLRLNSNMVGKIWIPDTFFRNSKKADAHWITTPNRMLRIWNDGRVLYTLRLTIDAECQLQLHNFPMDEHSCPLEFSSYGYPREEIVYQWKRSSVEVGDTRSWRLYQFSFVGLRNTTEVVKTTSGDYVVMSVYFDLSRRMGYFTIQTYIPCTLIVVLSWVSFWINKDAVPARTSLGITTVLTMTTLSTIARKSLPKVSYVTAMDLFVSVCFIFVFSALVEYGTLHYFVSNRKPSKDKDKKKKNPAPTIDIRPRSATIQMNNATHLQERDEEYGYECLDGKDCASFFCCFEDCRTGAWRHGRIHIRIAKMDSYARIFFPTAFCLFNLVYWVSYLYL
# Chain of GABAA α5 receptor (P63079 26-473 partner): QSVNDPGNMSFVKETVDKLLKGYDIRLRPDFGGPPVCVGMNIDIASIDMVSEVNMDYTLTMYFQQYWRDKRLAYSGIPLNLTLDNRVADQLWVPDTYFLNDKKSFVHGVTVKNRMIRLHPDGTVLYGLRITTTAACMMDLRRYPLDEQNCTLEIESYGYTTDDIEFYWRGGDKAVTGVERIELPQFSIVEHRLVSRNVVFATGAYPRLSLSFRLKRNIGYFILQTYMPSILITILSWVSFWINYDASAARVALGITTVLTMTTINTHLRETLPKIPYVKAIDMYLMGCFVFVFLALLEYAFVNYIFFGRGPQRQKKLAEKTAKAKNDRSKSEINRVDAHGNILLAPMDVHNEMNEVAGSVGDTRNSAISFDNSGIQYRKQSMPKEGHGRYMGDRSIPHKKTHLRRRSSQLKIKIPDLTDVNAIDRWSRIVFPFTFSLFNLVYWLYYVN
# Text: Adult male Long Evans rats (265-295 g, Charles River, Portage, Mich., n=4/group) were used for GABAA α5 receptor occupancy studies. Rats were individually housed in ventilated stainless-steel racks on a 12:12 light/dark cycle. Food and water were available ad libitum.
# Ro 15-4513 was used as a receptor occupancy (RO) tracer for GABAA α5 receptor sites in the hippocampus and cerebellum. Ro 15-4513 was chosen as the tracer based on its selectivity for GABAA α5 receptors relative to other alpha subunit containing GABAA receptors and because it has been successfully used for GABAA α5 RO studies in animals and humans (see, e.g., Lingford-Hughes et al., J. Cereb. Blood Flow Metab. 22:878-89 (2002); Pym et al, Br. J. Pharmacol. 146: 817-825 (2005); and Maeda et al., Synapse 47: 200-208 (2003)). Ro 15-4513 (1 μg/kg), was dissolved in 25% hydroxyl-propyl beta-cyclodextrin and administered i.v. 20′ prior to the RO evaluations. Methyl 3,5-diphenylpyridazine-4-carboxylate (0.1-10 mg/kg) was synthesized by Nox Pharmaceuticals (India) and was dissolved in 25% hydroxyl-propyl beta-cyclodextrin and administered i.v. 15′ prior to tracer injection.
# The rats were sacrificed by cervical dislocation 20′ post tracer injection. The whole brain was rapidly removed, and lightly rinsed with sterile water. Trunk blood was collected in EDTA coated eppendorf tubes and stored on wet ice until study completion. Hippocampus and cerebellum were dissected and stored in 1.5 ml eppendorf tubes, and placed on wet ice until tissue extraction. In a drug naïve rat, six cortical brain tissues samples were collected for use in generating blank and standard curve samples.
# Acetonitrile containing 0.1% formic acid was added to each sample at a volume of four times the weight of the tissue sample. For the standard curve (0.1-30 ng/g) samples, a calculated volume of standard reduced the volume of acetonitrile. The sample was homogenized (FastPrep-24, Lysing Matrix D; 5.5 m/s, for 60 seconds or 7-8 watts power using sonic probe dismembrator; Fisher Scientific) and centrifuged for 16-minutes at 14,000 rpm. The (100 μl) supernatant solution was diluted by 300 μl of sterile water (pH 6.5). This solution was then mixed thoroughly and analyzed via LC/MS/MS for […] (tracer) and methyl 3,5-diphenylpyridazine-4-carboxylate.
# Receptor occupancy was determined by the ratio method which compared occupancy in the hippocampus (a region of high GABAA α5 receptor density) with occupancy in the cerebellum (a region with low GABAA α5 receptor density) and additionally by a high dose of the GABAA α5 negative allosteric modulator L-655,708 (10 mg/kg, i.v.) to define full occupancy.
smiles,measurement,setting,value
"COC(=O)c1c(-c2ccccc2)cnnc1-c1ccccc1 [methyl 3,5-diphenylpyridazine-4-carboxylate]",average no. of errors ± SEM in retention test,[1],1.31±0.40
same,memory performance relative to vehicle control,[1],significantly improved memory performance
same,Ro 15-4513 binding in hippocampus,"[2]; 0.01-10 mg/kg, i.v.",blocked; also recorded: dose-dependently reduced
same,cerebellum levels (binding) of Ro 15-4513,"[2]; 0.01-10 mg/kg, i.v.",did not affect; also recorded: without affecting
same,GABAA α5 receptors occupied at exposures behaviorally active in aged-impaired rats,"[2]; hippocampus, FIG. 5",about 32%
same,"ED50 of receptor occupancy, ratio method","[2]; i.v., hippocampus/cerebellum ratio method",1.8 mg/kg
same,receptor occupancy at 10 mg/kg,"[2]; rat, iv, read-out: GABAA α5 receptor occupancy",> 90%
same,receptor occupancy at 1 mg/kg,"[2]; rat, iv, read-out: receptor occupancy at an exposure of 180 ng/g in hippocampus",32 to 39%
